This passage reports Ki results from patent US12486278B2, “MASP-2 inhibitors and methods of use” (Omeros Corporation, priority 2019, dated 2025).

Counter-ions that a name gives are not always drawn.

In general, Ki refers to a dissociation constant, usually derived from enzyme kinetics or from competition with a known ligand. A higher Ki goes with weaker binding.

The assay deals with T1, MASP-2 (CCP1-CCP2-SP) (Homo sapiens, UniProt O00187).
T1 construct: 15 μL of Enzyme MASP-2 (CCP1-CCP2-SP) in Assay Buffer
T1 sequence (O00187 445-686 limits assumed): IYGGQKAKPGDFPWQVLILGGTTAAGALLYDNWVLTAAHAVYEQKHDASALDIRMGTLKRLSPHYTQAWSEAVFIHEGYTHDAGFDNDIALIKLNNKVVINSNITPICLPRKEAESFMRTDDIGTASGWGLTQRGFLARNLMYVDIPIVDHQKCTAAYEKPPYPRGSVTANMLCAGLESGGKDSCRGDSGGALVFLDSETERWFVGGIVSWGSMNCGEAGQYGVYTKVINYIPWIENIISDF
T1 sequence (O00187 298-444 partner limits assumed): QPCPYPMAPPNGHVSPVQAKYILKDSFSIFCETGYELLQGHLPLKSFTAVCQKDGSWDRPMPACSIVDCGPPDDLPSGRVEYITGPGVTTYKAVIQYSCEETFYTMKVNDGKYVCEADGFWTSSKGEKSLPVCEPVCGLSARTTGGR
In words: Enzymatic Assay for MASP-2 (fluorogenic substrate). It is filed as biochemical. The note with it: fluorogenic substrate based on C2 cleavage site; room temperature, 20 min; 20 mM HEPES pH 7.4, 140 mM NaCl, 0.1% Tween 20. In a few lines:
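Fluorogenic substrate built on the C2 cleavage site, in 20 mM HEPES pH 7.4, 140 mM NaCl, 0.1% Tween 20, run at room temperature for 20 min before an acetic acid stop. Fluorescence normalised to DMSO-only and no-enzyme controls; IC50 taken as equivalent to Ki, with tight- or slow-binding inhibitors treated separately.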
Regarding `C[C@H](NC(=O)[C@H]1C[C@H](Cc2ccccc2)CN1)C(=O)NCc1ccc2c(c1)CNC2` [Compound I-9, (2R,4S)-4-Benzyl-N—((S)-1-((Isoindolin-5-Ylmethyl)Amino)-1-Oxopropan-2-Yl)Pyrrolidine-2-Carboxamide Di-Trifluoroacetate], the Ki was less than 500 nM.

On to `C[C@H](NC(=O)[C@H]1C[C@H](c2ccccc2)CN1CC(=O)O)C(=O)NCc1ccc(C(=N)N)cc1` [Compound I-35, 2-((2R,4R)-2-(((S)-1-((4-Carbamimidoylbenzyl)Amino)-1-Oxopropan-2-Yl)Carbamoyl)-4-Phenylpyrrolidin-1-Yl)Acetic Acid Di-Trifluoroacetate], for which the Ki is less than 500 nM. The value for `C[C@H](NC(=O)[C@H]1C[C@H](Cc2cc(Cl)c(Cl)s2)CN1)C(=O)NCc1cc2cnccc2[nH]1` [Compound I-22, (2R,4R)—N—((S)-1-(((1H-Pyrrolo[3,2-C]Pyridin-2-Yl)Methyl)Amino)-1-Oxopropan-2-Yl)-4-((4,5-Dichlorothiophen-2-Yl)Methyl)Pyrrolidine-2-Carboxamide Di-Trifluoroacetate] was less than 500 nM; that for `COC(=O)c1ccc(C[C@@H]2CN[C@@H](C(=O)N[C@@H](C)C(=O)NCc3ccc(N)nc3C)C2)cc1` [Compound I-50, Methyl 4-(((3S,5R)-5-(((S)-1-(((6-Amino-2-Methylpyridin-3-Yl)Methyl)Amino)-1-Oxopropan-2-Yl)Carbamoyl)Pyrrolidin-3-Yl)Methyl)Benzoate Dihydrochloride] was less than 500 nM; that for `Cc1nc(N)ccc1CNC(=O)[C@@H]1CCN1C(=O)[C@H]1C[C@H](Cc2ccc(-c3ccccc3)cc2)CN1` [Compound I-62, (S)-1-((2R,4S)-4-([1,1′-Biphenyl]-4-Ylmethyl)Pyrrolidine-2-Carbonyl)-N-((6-Amino-2-Methylpyridin-3-Yl)Methyl)Azetidine-2-Carboxamide Di-Trifluoroacetate] was less than 500 nM.

For the compound `C[C@H](NC(=O)[C@H]1C[C@H](c2ccccc2)CN1)C(=O)NCc1cc2ccncc2[nH]1` [Compound I-3, (2R,4R)—N—((S)-1-(((1H-pyrrolo[2,3-c]pyridin-2-yl)methyl)amino)-1-oxopropan-2-yl)-4-phenylpyrrolidine-2-carboxamide di-trifluoroacetate], the Ki fell in the range of 2500 to 10000 nM. The value for `C[C@H](NC(=O)[C@H]1C[C@@H](c2ccccc2)CCN1CCP(=O)(O)O)C(=O)NCc1ccc(C(=N)N)cc1` [Compound I-38, (2-((2R,4S)-2-(((S)-1-((4-Carbamimidoylbenzyl)Amino)-1-Oxopropan-2-Yl)Carbamoyl)-4-Phenylpiperidin-1-Yl)Ethyl)Phosphonic Acid Di-Trifluoroacetate] was less than 500 nM; that for `CCN1C[C@@H](Cc2ccc(F)c(Cl)c2)C[C@@H]1C(=O)N[C@@H](C)C(=O)NCc1cnc2[nH]cc(Cl)c2c1` [Compound I-27, (2R,4S)—N—((S)-1-(((3-Chloro-1H-Pyrrolo[2,3-B]Pyridin-5-Yl)Methyl)Amino)-1-Oxopropan-2-Yl)-4-(3-Chloro-4-Fluorobenzyl)-1-Ethylpyrrolidine-2-Carboxamide] was less than 500 nM; that for `Cc1nc(N)ccc1CNC(=O)[C@H](C)NC(=O)[C@H]1C[C@H](Cc2cccc(-c3ccc(F)cc3)c2)CN1` [Compound I-81, (2R,4S)—N—((S)-1-(((6-Amino-2-Methylpyridin-3-Yl)Methyl)Amino)-1-Oxopropan-2-Yl)-4-((4′-Fluoro-[1,1′-Biphenyl]-3-Yl)Methyl)Pyrrolidine-2-Carboxamide Di-Trifluoroacetate] was less than 500 nM.

`Cc1nc(N)ccc1CNC(=O)[C@H](C)NC(=O)[C@H]1C[C@H](Cc2ccn(C)c(=O)c2)CN1` [Compound I-53, (2R,4S)—N—((S)-1-(((6-Amino-2-Methylpyridin-3-Yl)Methyl)Amino)-1-Oxopropan-2-Yl)-4-((1-Methyl-2-Oxo-1,2-Dihydropyridin-4-Yl)Methyl)Pyrrolidine-2-Carboxamide Di-Trifluoroacetate]: the Ki was less than 500 nM. The value for `C[C@H](NC(=O)[C@H]1C[C@@H](c2ccccc2)CCN1CC(=O)O)C(=O)NCc1ccc(C(=N)N)cc1` [Compound I-34, 2-((2R,4S)-2-(((S)-1-((4-Carbamimidoylbenzyl)Amino)-1-Oxopropan-2-Yl)Carbamoyl)-4-Phenylpiperidin-1-Yl)Acetic Acid Di-Trifluoroacetate] was less than 500 nM; that for `CC(NC(=O)[C@H]1C[C@@H](c2ccccc2)CCN1CC(=O)O)C(=O)NCc1cc2cnccc2[nH]1` (stereo in doubt) [Compound I-105, 2-((2R,4S)-2-(((S)-1-(((1H-pyrrolo[3,2-c]pyridin-2-yl)methyl)amino)-1-oxopropan-2-yl)carbamoyl)-4-phenylpiperidin-1-yl)acetic acid di-trifluoroacetate] was less than 500 nM.

`C[C@H](NC(=O)[C@H]1C[C@@H](c2ccc(-c3ccccc3)cc2)CCN1)C(=O)NCc1cc2cnccc2[nH]1` [Compound I-74, (2R,4S)—N—((S)-1-(((1H-Pyrrolo[3,2-C]Pyridin-2-Yl)Methyl)Amino)-1-Oxopropan-2-Yl)-4-([1,1′-Biphenyl]-4-Yl)Piperidine-2-Carboxamide Di-Trifluoroacetate] came in with a Ki of less than 500 nM. The value for `C[C@H](NC(=O)[C@H]1C[C@@H](c2ccccc2)CCN1)C(=O)NCc1ccc(C(=N)N)s1` [Compound I-91, (2R,4S)—N—((S)-1-(((5-carbamimidoylthiophen-2-yl)methyl)amino)-1-oxopropan-2-yl)-4-phenylpiperidine-2-carboxamide di-trifluoroacetate] was less than 500 nM; that for `C[C@H](NC(=O)[C@H]1C[C@@H](c2ccc(-c3cccnc3)cc2)CCN1)C(=O)NCc1cc2cnccc2[nH]1` [Compound I-73, (2R,4S)—N—((S)-1-(((1H-Pyrrolo[3,2-C]Pyridin-2-Yl)Methyl)Amino)-1-Oxopropan-2-Yl)-4-(4-(Pyridin-3-Yl)Phenyl)Piperidine-2-Carboxamide Tri-Trifluoroacetate] was less than 500 nM; that for `C[C@H](NC(=O)[C@H]1C[C@H](Cc2ccccc2)CN1)C(=O)NCc1ccc2nccn2c1` [Compound I-59, (2R,4S)-4-Benzyl-N—((S)-1-((Imidazo[1,2-A]Pyridin-6-Ylmethyl)Amino)-1-Oxopropan-2-Yl Pyrrolidine-2-Carboxamide Trifluoroacetate] was more than 10000 nM. The figure for `[2H]C([2H])([2H])n1cc(Cl)c2cc(CNC(=O)[C@H](C)NC(=O)[C@H]3C[C@H](Cc4ccccc4)CN3)cnc21` [Compound I-45, (2R,4S)-4-Benzyl-N—((S)-1-(((3-Chloro-1-(Methyl-D3)-1H-Pyrrolo[2,3-B]Pyridin-5-Yl)Methyl)Amino)-1-Oxopropan-2-Yl)Pyrrolidine-2-Carboxamide Hydrochloride] is less than 500 nM; for `Cc1nc(N)ccc1CNC(=O)[C@@H]1COC(=O)N1C(=O)[C@H]1C[C@H](Cc2ccccc2)CN1` [Compound I-58, (S)—N-((6-Amino-2-Methylpyridin-3-Yl)Methyl)-3-((2R,4S)-4-Benzylpyrrolidine-2-Carbonyl)-2-Oxooxazolidine-4-Carboxamide Di-Trifluoroacetate] it is less than 500 nM; for `CCOC(=O)CCN1CC[C@H](c2ccccc2)C[C@@H]1C(=O)N[C@@H](C)C(=O)NCc1cc2cnccc2[nH]1` [Compound I-106, Ethyl 3-((2R,4S)-2-(((S)-1-(((1H-pyrrolo[3,2-c]pyridin-2-yl)methyl)amino)-1-oxopropan-2-yl)carbamoyl)-4-phenylpiperidin-1-yl)propanoate] it is less than 500 nM. The value for `C[C@H](NC(=O)[C@H]1C[C@H](c2ccccc2)CN1)C(=O)NCc1cc2c(Br)cncc2[nH]1` [Compound I-1, (2R,4R)—N—((S)-1-(((4-bromo-1H-pyrrolo[2,3-c]pyridin-2-yl)methyl)amino)-1-oxopropan-2-yl)-4-phenylpyrrolidine-2-carboxamide di-trifluoroacetate] was more than 10000 nM. As to `C[C@H](NC(=O)[C@H]1C[C@@H](c2ccc(-c3ccccc3)cc2)CCN1)C(=O)NCc1cc(Cl)ccc1-n1cnnn1` [Compound I-102, (2R,4S)-4-([1,1′-Biphenyl]-4-yl)-N—((S)-1-((5-chloro-2-(1H-tetrazol-1-yl)benzyl)amino)-1-oxopropan-2-yl)piperidine-2-carboxamide trifluoroacetate], the Ki was less than 500 nM.

On to `Cc1nc(N)ccc1CNC(=O)[C@H](C)NC(=O)[C@H]1C[C@H](Cc2ccc(C(=O)O)cc2)CN1` [Compound I-51, 4-(((3S,5R)-5-(((S)-1-(((6-Amino-2-Methylpyridin-3-Yl)Methyl)Amino)-1-Oxopropan-2-Yl)Carbamoyl)Pyrrolidin-3-Yl)Methyl)Benzoic Acid Di-Trifluoroacetate], for which the Ki is less than 500 nM. The figure for `C[C@H](NC(=O)[C@H]1C=C(C2(c3ccccc3)CC2)CN1)C(=O)NCc1ccc(C(=N)N)cc1` [Compound I-52, (R)—N—((S)-1-((4-Carbamimidoylbenzyl)Amino)-1-Oxopropan-2-Yl)-4-(1-Phenylcyclopropyl)-2,5-Dihydro-1H-Pyrrole-2-Carboxamide Di-Trifluoroacetate] is less than 500 nM; for `Cc1nc(N)ccc1CNC(=O)[C@H](C)NC(=O)[C@H]1C[C@H](Cc2ccc(C#N)s2)CN1` [Compound I-86, (2R,4R)—N—((S)-1-(((6-Amino-2-Methylpyridin-3-Yl)Methyl)Amino)-1-Oxopropan-2-Yl)-4-((5-Cyanothiophen-2-Yl)Methyl)Pyrrolidine-2-Carboxamide Dihydrochloride] it is less than 500 nM; for `C[C@H](NC(=O)[C@H]1C[C@H](Oc2ccccc2)CN1)C(=O)NCc1ccc(C(=N)N)cc1` [Compound I-96, (2R,4S)—N—((S)-1-((4-Carbamimidoylbenzyl)amino)-1-oxopropan-2-yl)-4-phenoxypyrrolidine-2-carboxamide di-trifluoroacetate] it is less than 500 nM.
